This note sets out measurements from PubChem BioAssay AID330 (DTP/NCI, 2004).

“And” between values parts separate entries of the source, which are not always exact repeats. Equal entries are not always repeated. Inconclusive results and toxic doses are left out.

This test deals with P388 leukemia ip, CD2F1 mice, survival T/C. Kind of test: NCI In Vivo Anticancer Drug Screen. Data for tumor model P388 Leukemia (intraperitoneal) in CD2F1 (CDF1) mice. Conditions: endpoint: median survival time, higher = longer survival. An outline of the steps: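 Mice carrying the transplanted tumor received test compound or vehicle. Survival was recorded in each group, and the value is the treated-group measurement divided by that of the vehicle-treated control group.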

Where [1] appears, read: dose: 50.0 mg/kg/injection, schedule: Q01DX005 (ip), vehicle: Klucel (hydroxypropylcellulose) (HPC).
Where [2] appears, read: dose: 100.0 mg/kg/injection, schedule: Q01DX005 (ip), vehicle: Klucel (hydroxypropylcellulose) (HPC).
The mark [3] stands for this setting: dose: 200.0 mg/kg/injection, schedule: Q01DX005 (ip), vehicle: Klucel (hydroxypropylcellulose) (HPC).
The mark [4] stands for this setting: dose: 25.0 mg/kg/injection, schedule: Q01DX009 (ip), vehicle: saline with Tween-80.
The mark [5] stands for this setting: dose: 50.0 mg/kg/injection, schedule: Q01DX009 (ip), vehicle: saline with Tween-80.
The mark [6] stands for this setting: dose: 100.0 mg/kg/injection, schedule: Q01DX009 (ip), vehicle: saline with Tween-80.
Setting [7] is: dose: 200.0 mg/kg/injection, schedule: Q01DX005 (ip), vehicle: saline with Tween-80.
Where [8] appears, read: dose: 60.0 mg/kg/injection, schedule: Q01DX005 (ip), vehicle: saline with Tween-80.
The mark [9] stands for this setting: dose: 120.0 mg/kg/injection, schedule: Q01DX005 (ip), vehicle: saline with Tween-80.
Where [10] appears, read: dose: 240.0 mg/kg/injection, schedule: Q01DX005 (ip), vehicle: saline with Tween-80.
The mark [11] stands for this setting: dose: 150.0 mg/kg/injection, schedule: Q01DX009 (ip), vehicle: saline with Tween-80.

Regarding `O=S1(=O)N2CN3CN(C2)CN1C3`, the T/C runs as follows: (dose: 6.25 mg/kg/injection, schedule: Q04DX003 (ip), vehicle: Klucel (hydroxypropylcellulose) (HPC)) 106 % of control; (dose: 12.5 mg/kg/injection, schedule: Q04DX003 (ip), vehicle: Klucel (hydroxypropylcellulose) (HPC)) 104 % of control; (dose: 25.0 mg/kg/injection, schedule: Q04DX003 (ip), vehicle: Klucel (hydroxypropylcellulose) (HPC)) 111 % of control; (dose: 50.0 mg/kg/injection, schedule: Q04DX003 (ip), vehicle: Klucel (hydroxypropylcellulose) (HPC)) 106 % of control.

For the compound `COc1cccc2c1C(=O)c1c(O)c3c(c(O)c1C2=O)C[C@@](O)(C(C)=O)C[C@@H]3OC1CC(N)C(OC2CC(O)C(O)C(C)O2)C(C)O1` (stereo not given in full), the T/C (dose: 2.25 mg/kg/injection, schedule: Q04DX003 (ip), vehicle: distilled water + Tween-80) is 113 % of control; the T/C (dose: 4.5 mg/kg/injection, schedule: Q04DX003 (ip), vehicle: distilled water + Tween-80) is 113 % of control; the T/C (dose: 6.25 mg/kg/injection, schedule: Q04DX003 (ip), vehicle: distilled water + Tween-80) was 112 % of control; the T/C (dose: 9.0 mg/kg/injection, schedule: Q04DX003 (ip), vehicle: distilled water + Tween-80) is 123 % of control; the T/C (dose: 12.5 mg/kg/injection, schedule: Q04DX003 (ip), vehicle: distilled water + Tween-80) is 112 % of control; the T/C (dose: 25.0 mg/kg/injection, schedule: Q04DX003 (ip), vehicle: distilled water + Tween-80) is 119 % of control. Besides, the T/C runs as follows: (dose: 36.0 mg/kg/injection, schedule: Q04DX003 (ip), vehicle: distilled water + Tween-80) 123 % of control; (dose: 100.0 mg/kg/injection, schedule: Q04DX003 (ip), vehicle: distilled water + Tween-80) 118 % of control.

In the case of `C/C=C(\C)C(=O)N/N=C/c1cccc(OC)c1O`, the T/C runs as follows: under setting [1], 95 % of control; under setting [2], 92 % of control; under setting [3], 96 % of control.

For `CC12CC3(C)CC(C)(C1)CC(C(NC(C)(C)C)C(=O)O)(C2)C3` (stereo not given), the T/C under setting [4] is 100 % of control; the T/C under setting [5] is 100 % of control and 105 % of control and 122 % of control; the T/C under setting [6] is 99 % of control and 110 % of control and 96 % of control; the T/C (dose: 200.0 mg/kg/injection, schedule: Q01DX009 (ip), vehicle: saline with Tween-80) was 99 % of control.

`CC1=C(C)C(=O)c2c(c(O)c3ccccc3c2Cl)C1=O`: the T/C is 96 % of control (dose: 0.75 mg/kg/injection, schedule: Q01DX005 (ip), vehicle: saline with Tween-80); 89 % of control (dose: 1.5 mg/kg/injection, schedule: Q01DX005 (ip), vehicle: saline with Tween-80); 91 % of control (dose: 3.0 mg/kg/injection, schedule: Q01DX005 (ip), vehicle: saline with Tween-80); 93 % of control under setting [7].

As to `OC1(c2ccccc2)CCCCCC1`, the T/C under setting [4] is 113 % of control; the T/C under setting [5] is 106 % of control; the T/C under setting [6] was 106 % of control and 108 % of control.

Regarding `Cc1cc(Cl)c2cc3c(cc2n1)OCO3`, the T/C under setting [1] was 106 % of control, the T/C under setting [2] is 104 % of control and the T/C under setting [3] was 98 % of control.

Turning to `COc1cc2c(cc1OC)C1=[N+](CCC1)CC2`, the T/C by setting is: (dose: 15.0 mg/kg/injection, schedule: Q01DX005 (ip), vehicle: saline) 101 % of control; (dose: 30.0 mg/kg/injection, schedule: Q01DX005 (ip), vehicle: saline) 99 % of control; (dose: 60.0 mg/kg/injection, schedule: Q01DX005 (ip), vehicle: saline) 99 % of control.

`CCOC(=O)C(CO)NC(=O)c1cnc2ccccc2c1` (stereo not given): the T/C was 99 % of control under setting [8] and 97 % of control under setting [9].

Regarding `O=C(OCCCl)c1ccccc1NC(=O)N1CCOCC1`, the T/C was 105 % of control under setting [1], 99 % of control under setting [2] and 98 % of control under setting [3].

In the case of `COc1cccc(CN2C(=O)NC(C)(C)C2O)c1` (stereo not given), the T/C is 99 % of control under setting [8], 101 % of control under setting [9] and 101 % of control under setting [10].

As for `O/N=C(/Cc1nc2cc(Cl)c(Cl)cc2nc1C/C(=N/O)c1cccnc1)c1cccnc1`, the T/C is, setting by setting: under setting [8], 102 % of control; under setting [9], 107 % of control; under setting [10], 107 % of control.

For the compound `CC(C)(C)OC(=O)NCCCCC(NC(=O)OCc1ccccc1)C(=O)O` (stereo not given), the T/C runs as follows: (dose: 25.0 mg/kg/injection, schedule: Q01DX005 (ip), vehicle: Klucel (hydroxypropylcellulose) (HPC)) 102 % of control; under setting [1], 100 % of control; under setting [2], 101 % of control.

As to `COc1ccc2nc(N)sc2c1`, the T/C runs as follows: (dose: 12.5 mg/kg/injection, schedule: Q01DX009 (ip), vehicle: Klucel (hydroxypropylcellulose) (HPC)) 97 % of control; (dose: 12.5 mg/kg/injection, schedule: Q01DX009 (ip), vehicle: saline with Tween-80) 111 % of control; (dose: 25.0 mg/kg/injection, schedule: Q01DX009 (ip), vehicle: Klucel (hydroxypropylcellulose) (HPC)) 99 % of control; under setting [4], 111 % of control; (dose: 50.0 mg/kg/injection, schedule: Q01DX009 (ip), vehicle: Klucel (hydroxypropylcellulose) (HPC)) 107 % of control; under setting [5], 120 % of control. Moreover, the T/C (dose: 100.0 mg/kg/injection, schedule: Q01DX009 (ip), vehicle: Klucel (hydroxypropylcellulose) (HPC)) was 107 % of control.

For the compound `CCOC(=O)COc1ccc(Cc2ccc3c(c2)OCO3)cc1C`, the T/C reads like this: (dose: 50.0 mg/kg/injection, schedule: Q01DX005 (ip), vehicle: saline with Tween-80) 97 % of control; (dose: 100.0 mg/kg/injection, schedule: Q01DX005 (ip), vehicle: saline with Tween-80) 97 % of control; under setting [7], 93 % of control.

Regarding `O=C1N(Br)C(=O)C(c2ccc(Cl)cc2)(c2ccc(Cl)cc2)N1Br`, the T/C is 122 % of control (dose: 11.0 mg/kg/injection, schedule: Q01DX009 (ip), vehicle: saline with Tween-80) and 154 % of control under setting [11].

As for `O=[N+]([O-])c1cc(Cl)c(Cl)cc1NS(=O)(=O)c1ccccc1`, the T/C under setting [11] was 90 % of control; the T/C (dose: 150.0 mg/kg/injection, schedule: Q04DX003 (ip), vehicle: saline with Tween-80) is 100 % of control; the T/C (dose: 300.0 mg/kg/injection, schedule: Q01DX009 (ip), vehicle: saline with Tween-80) was 100 % of control; the T/C (dose: 300.0 mg/kg/injection, schedule: Q04DX003 (ip), vehicle: saline with Tween-80) is 100 % of control; the T/C (dose: 600.0 mg/kg/injection, schedule: Q04DX003 (ip), vehicle: saline with Tween-80) was 95 % of control.

`CNC(=O)Nc1c(C)cccc1C`: the T/C was 104 % of control (dose: 25.0 mg/kg/injection, schedule: Q04DX003 (ip), vehicle: saline with Tween-80); 100 % of control (dose: 50.0 mg/kg/injection, schedule: Q04DX003 (ip), vehicle: saline with Tween-80); 105 % of control (dose: 100.0 mg/kg/injection, schedule: Q04DX003 (ip), vehicle: saline with Tween-80); 107 % of control (dose: 200.0 mg/kg/injection, schedule: Q04DX003 (ip), vehicle: saline with Tween-80).

`O=c1c2ccccc2nc(CCN(CCCl)CCCl)n1-c1ccc(Cl)cc1`: the T/C (dose: 25.0 mg/kg/injection, schedule: Q01DX001 (ip), vehicle: saline) is 106 % of control; the T/C (dose: 50.0 mg/kg/injection, schedule: Q01DX001 (ip), vehicle: saline) is 113 % of control; the T/C (dose: 200.0 mg/kg/injection, schedule: Q01DX001 (ip), vehicle: saline) was 164 % of control.
